Measurements reported in patent US20080319065A1, “Systemic and Intrathecal Effects of a Novel Series of Phospholipase A2 Inhibitors on Hyperalgesia and Spinal Pge2 Release” (The Regents of the University of California, priority 2005, published 2008).

Columns and labels:
COX-1 and COX-2 proteins = assay: COX Activity Assay kit, in vitro cyclooxygenase activity; type: biochemical; conditions: 50 μM
Protocol: Inhibitors dissolved in DMSO (study compounds) or ethanol (indomethacin) were added to 50 μM final concentration and allowed to incubate with the assay mixture including enzyme for 5 minutes. After addition of TMPD and arachidonic acid, samples were mixed and allowed to incubate 5 minutes at room temperature before reading absorbance at 595 nm to determine results. Results were calculated and percent inhibition values derived.

[1] = target: T1, Group IVA cPLA2 (GIVA PLA2) (Homo sapiens, UniProt P47712); assay: In vitro Group IVA cPLA2 mixed micelle assay; type: biochemical
T1 sequence (P47712 1-749): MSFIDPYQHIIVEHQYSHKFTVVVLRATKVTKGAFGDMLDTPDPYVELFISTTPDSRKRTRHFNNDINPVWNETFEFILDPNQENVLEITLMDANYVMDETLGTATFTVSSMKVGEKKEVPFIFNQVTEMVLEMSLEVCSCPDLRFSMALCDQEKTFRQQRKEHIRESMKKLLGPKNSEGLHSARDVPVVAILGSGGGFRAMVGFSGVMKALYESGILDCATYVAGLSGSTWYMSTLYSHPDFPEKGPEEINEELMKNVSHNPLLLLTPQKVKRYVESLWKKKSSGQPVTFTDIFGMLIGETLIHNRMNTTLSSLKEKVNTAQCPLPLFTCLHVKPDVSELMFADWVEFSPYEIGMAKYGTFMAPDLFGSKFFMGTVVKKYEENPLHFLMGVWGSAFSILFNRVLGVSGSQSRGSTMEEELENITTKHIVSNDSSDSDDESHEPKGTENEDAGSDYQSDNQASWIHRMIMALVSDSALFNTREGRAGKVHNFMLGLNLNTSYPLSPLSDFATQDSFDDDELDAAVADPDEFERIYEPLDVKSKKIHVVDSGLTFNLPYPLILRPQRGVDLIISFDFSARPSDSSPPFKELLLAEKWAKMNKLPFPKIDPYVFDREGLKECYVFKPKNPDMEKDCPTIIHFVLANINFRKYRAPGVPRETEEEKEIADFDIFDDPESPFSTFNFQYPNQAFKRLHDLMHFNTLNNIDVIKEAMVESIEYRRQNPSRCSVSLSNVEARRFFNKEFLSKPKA
Protocol: (§1) Numerous 2-oxoamides were tested for inhibition of PLA2s in in vitro assay systems. The data, summarized in Tables 1a, 1b and 2 are represented as XI(50) values unless otherwise noted. XI(50) is defined as the inhibitor concentration that produced 50% inhibition. XI(50) is used as opposed to the more common IC50 because GIVA and GVIA PLA2 are active at a two-dimensional lipid interface rather than in three-dimensional solution. (Deems, Anal. Biochem., 287:1-16, 2000). The 2-oxoamide inhibitors likely partition to the micelle interface and therefore must be represented as a percentage of surface concentration (mole fraction) as opposed to bulk concentration (molar units). (Kokotos, et al., J. Med. Chem., 45:2891-2893, 2002).
(§2) In vitro Group IV cPLA2 and Group VI iPLA2 assays were done as previously described (Kokotos, et al., supra, 2002). Briefly, 100 μM lipid substrate and 100,000 cpm radiolabeled analog were dried down under N2 and dissolved in assay buffer containing 400 μM Triton X-100 to yield a mixed micelle substrate solution. Inhibitors dissolved in DMSO were added to the reaction tubes and allowed to incubate with substrate for five minutes at 40° C. Pure enzyme was added to yield a final volume of 500 μl, and digestion was carried out at 40° C. for 30 minutes. Reactions were quenched and extracted using the Dole method and products were quantified by liquid scintillation counting. Percent inhibition was determined at a range of inhibitor mole fraction concentrations for XI(50) calculations.

GVIA PLA2 = target: T2, GVIA PLA2 (Homo sapiens, UniProt O60733); assay: Time dependence and reversibility of GVIA PLA2 inhibition; type: biochemical
T2 sequence (O60733 1-806): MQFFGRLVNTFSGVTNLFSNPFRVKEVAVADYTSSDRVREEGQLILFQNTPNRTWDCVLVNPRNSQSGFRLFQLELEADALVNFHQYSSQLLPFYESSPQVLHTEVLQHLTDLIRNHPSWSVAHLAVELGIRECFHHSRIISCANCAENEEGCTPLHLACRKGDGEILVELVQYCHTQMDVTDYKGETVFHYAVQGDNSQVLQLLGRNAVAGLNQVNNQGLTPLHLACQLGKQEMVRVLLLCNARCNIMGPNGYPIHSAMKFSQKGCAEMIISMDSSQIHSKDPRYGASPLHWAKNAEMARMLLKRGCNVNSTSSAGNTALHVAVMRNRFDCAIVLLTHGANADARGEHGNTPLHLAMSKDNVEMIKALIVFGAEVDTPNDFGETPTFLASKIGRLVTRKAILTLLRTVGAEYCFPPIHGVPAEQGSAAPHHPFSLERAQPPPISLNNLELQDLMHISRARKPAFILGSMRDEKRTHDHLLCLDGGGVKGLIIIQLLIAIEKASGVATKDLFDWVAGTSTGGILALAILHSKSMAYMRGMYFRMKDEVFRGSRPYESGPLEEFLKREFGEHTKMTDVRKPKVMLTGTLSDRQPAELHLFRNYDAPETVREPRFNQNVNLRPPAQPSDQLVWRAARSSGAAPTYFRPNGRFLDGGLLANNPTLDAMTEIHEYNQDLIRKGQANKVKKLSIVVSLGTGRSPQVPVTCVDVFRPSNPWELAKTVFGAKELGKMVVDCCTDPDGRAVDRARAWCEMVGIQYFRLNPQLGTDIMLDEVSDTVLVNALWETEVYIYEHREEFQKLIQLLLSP
Protocol: GVIA PLA2 (25 ng) was preincubated with either AX010 or AX0073 (5 μM) for 0, 5, 15 or 30 minutes and then assayed in the standard GVIA PLA2 assay mix containing 5 μM inhibitor. The final concentration of the inhibitors in the assay mix was 0.01 mole fraction, and the samples were incubated for 30 minutes at 40° C. […] In the latter respect, 25 ng of GVIA PLA2 was pre-incubated with 10 μM AX010 or AX073 for 10 minutes before diluting the enzyme 1:50 into the standard GVIA PLA2 assay mix lacking inhibitor, and incubating for 30 minutes at 40° C. The final inhibitor concentration in these assays was 0.0004 mole fraction, well below surface concentrations that either AX010 or AX073 inhibit the enzyme.

[2] = target: T3, Group VIA iPLA2 (GVIA PLA2) (Homo sapiens, UniProt O60733); assay: In vitro Group VIA iPLA2 mixed micelle assay; type: biochemical
T3 sequence (O60733 1-806): T2 sequence (O60733 1-806)
Protocol: as §1, §2

GV sPLA2 = target: T4, GV sPLA2 (Homo sapiens, UniProt P39877); assay: GV sPLA2 activity assay; type: biochemical; conditions: at 0.091 mole fraction
T4 sequence (P39877 21-138): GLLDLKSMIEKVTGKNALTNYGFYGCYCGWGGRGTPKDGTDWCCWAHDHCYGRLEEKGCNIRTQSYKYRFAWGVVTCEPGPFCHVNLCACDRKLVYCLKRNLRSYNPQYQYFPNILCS
Protocol: GV sPLA2 activity was measured in a similar assay. The final assay buffer was composed of 50 mM Tris-HCl (pH 8.0) and 5 mM CaCl2. Each assay was performed in 500 μL total volume made up of 100 μL of 5× substrate solution (20 μL of 10 mM Triton X-100 and 80 μL assay buffer), 390 μL assay buffer, 10 μL GV sPLA2 solution (1 μL of 40 ng/μL stock and 9 μL assay buffer), and 5 μL of DMSO or 2-oxoamide in DMSO. The 5× substrate solution was prepared by drying down the phospholipids (in organic solvent) with N2. The appropriate volume of 10 mM Triton X-100 was added, heated and vortexed until clear. Then assay buffer was added to make a 5× substrate solution. The final mixed micelles were at 400 μM Triton X-100 and 100 μM DPPC (of which 100,000 cpm of ^14C-DPPC).

[3] = system: murine RAW 264.7 macrophage-like cell line; assay: Long-term LPS stimulation, PGE2 release; type: cell-based; conditions: low μM range
Protocol: Several 2-oxoamides were tested in the long-term lipopolysaccharide (LPS) stimulation pathway in the murine RAW 264.7 macrophage-like cell line. (Raschke, et al., Cell, 1978, 15, 261-267). This pathway requires GIVA PLA2 activity and results in the extracellular release of many eicosanoid compounds including the prostaglandin PGE2. (Gijon, et al., leukoc. Biol., 1999, 65, 330-336). […] In the low μM range, AX041 and AX073 reduced PGE2 release by roughly 40% (FIG. 1(D)). At 1 μM and 5 μM concentrations, small activations were often seen. The in vitro and cellular results together are consistent with the known roles of GVIA PLA2 given that AX010, a selective GVIA inhibitor, had no cellular effect. […] Inhibitors selective for GIVA PLA2 or dual specificity inhibitors reduce PGE2 levels, also consistent with the known role of GIVA PLA2 in PGE2 production.

Row | SMILES | inhibition of cyclooxygenase activity (COX-1 and COX-2 proteins) | melting point | Inhibition of GIVA PLA2, XI(50) [1] | reversibility of GVIA PLA2 inhibition (GVIA PLA2; pre-incubated with 10 μM for 10 minutes, diluted 1:50, final 0.0004 mole fraction) | time-dependent inhibition of GVIA PLA2 (GVIA PLA2; preincubated 0, 5, 15 or 30 minutes, 5 μM inhibitor, 0.01 mole fraction) | Inhibition of GVIA PLA2, XI(50) [2] | efficacy against sPLA2 (GV sPLA2) | reduction of PGE2 release [3]
1 | COc1ccc2c(c1)c(CC(=O)O)c(C)n2C(=O)c1ccc(Cl)cc1 [indomethacin, reference compound] | near complete inhibition |  |  |  |  |  |  | 
2 | CCCCCCCCCCCCCCC(=O)C(=O)NC(C=CC(=O)OC)CCCC (centres unmarked) [AX073, 4-(2-Oxo-hexadecanoylamino)-oct-2-enoic acid methyl ester] |  | 48 to 50 °C | XI(50) =0.018 ± 0.010 mole fraction | freely reversible inhibitors | no increased potency with prolonged incubation | XI(50) =0.032 ± 0.010 mole fraction | 75.3% | roughly 40%
